Laboratory results published in the supplement of paper PMC4862054.

These compounds were tested on MDA-MB-436 (assay: normalised response (% of control), CellTiter-Glo; higher = more viable cells (100 = DMSO, 0 = benzethonium chloride kill control)). Details: incubation time: 72 h.
How it was run: (§1)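 Normalised signals at single concentrations make up the values. They come from breast cancer cell lines seeded (20 µl suspension) into 384-well plates with compound at 5 concentrations in 10-fold steps over a compound-specific 10,000-fold range, incubated 72 h, and read for CellTox Green fluorescence then CellTiter-Glo luminescence. Each plate was normalised to 0.1 % DMSO (100) and a positive kill control (0).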

SMILES | normalised response [%]
C[C@H]1C[C@@H]2[C@H]([C@@H](O)C[C@@]3(C)[C@H]2CC[C@]3(O)C(=O)CO)[C@@]2(C)C=CC(=O)C=C12 [Methylprednisolone] (1 nM) | 99.5
CC[C@H](C)C(=O)O[C@H]1C[C@H](O)C=C2C=C[C@H](C)[C@H](CC[C@@H](O)C[C@@H](O)CC(=O)O)[C@H]21 [Pravastatin] (10 nM) | 97.7
O=C(Cc1ccc(-c2ccc(OCCN3CCOCC3)cc2)cn1)NCc1ccccc1 [KX2-391] (10 nM) | 98

What follows are compounds tested on MDA-MB-453 in the same assay as above. Details: incubation time: 72 h.
How it was run: as §1

SMILES | normalised response [%]
Nc1nc(F)nc2c1ncn2[C@@H]1O[C@H](CO)[C@@H](O)[C@@H]1O [Fludarabine] (1 nM) | 112
CC[C@@H]1C(=O)N(C)c2cnc(Nc3ccc(C(=O)NC4CCN(C)CC4)cc3OC)nc2N1C1CCCC1 [BI 2536] (0.1 nM) | 92.6
Nc1ncn([C@H]2C[C@H](O)[C@@H](CO)O2)c(=O)n1 [Decitabine] (1 nM) | 110
CC1=C(/C=C/C(C)=C/C=C/C(C)=C/C(=O)O)C(C)(C)CCC1 [Tretinoin] (1 nM) | 97.1
COc1cc([C@@H]2c3cc4c(cc3[C@@H](O[C@@H]3O[C@@H]5CO[C@@H](c6cccs6)O[C@H]5[C@H](O)[C@H]3O)[C@H]3COC(=O)[C@H]23)OCO4)cc(OC)c1O [Teniposide] (1 nM) | 91.8
CCN(CC)CCCC(C)Nc1c2ccc(Cl)cc2nc2ccc(OC)cc12 (stereo not drawn) [Mepacrine] (50 nM) | 96.1
O=C(/C=C/c1cccnc1)NCCCCC1CCN(C(=O)c2ccccc2)CC1 [Daporinad] (1 nM) | 88.8
Nc1nc2[nH]cc(CCc3ccc(C(=O)N[C@@H](CCC(=O)O)C(=O)O)cc3)c2c(=O)[nH]1 [Pemetrexed] (10 nM) | 92.8
CC[C@H](Nc1ncnc2[nH]cnc12)c1nc2cccc(F)c2c(=O)n1-c1ccccc1 [GS-1101] (10 nM) | 89.1
Cc1cnc(NC(=O)Nc2cc(Br)c(C)cc2OC[C@@H]2CNCCO2)cn1 [Rabusertib] (0.1 nM) | 114
CNC(=O)c1cc(Oc2ccc(NC(=O)Nc3cc(C(C)(C)C)nn3-c3ccc4ncccc4c3)c(F)c2)ccn1 [Rebastinib] (1 nM) | 93.5
CCc1cncnc1N1CCN(Cc2nc3ccc(C(F)(F)F)cc3[nH]2)CC1 (1 nM) | 115
O=C(Cc1ccc(-c2ccc(OCCN3CCOCC3)cc2)cn1)NCc1ccccc1 [KX2-391] (1 nM) | 113
O=C(/C=C/c1cccnc1)NCCCCC1CCN(C(=O)c2ccccc2)CC1 [Daporinad] (0.1 nM) | 102
O=C(O)C(=O)O.[NH-][C@@H]1CCCC[C@H]1[NH-].[Pt+2] [Oxaliplatin] (1 nM) | 86.8
CC(=O)Nc1cccc(-n2c(=O)n(C3CC3)c(=O)c3c(Nc4ccc(I)cc4F)n(C)c(=O)c(C)c32)c1 [Trametinib] (0.025 nM) | 109
O=C(O)C1(C(=O)O)CCC1.[NH2-].[NH2-].[Pt+2] [Carboplatin] (1 nM) | 109
C[C@H]1C[C@@H]2[C@H]([C@@H](O)C[C@@]3(C)[C@H]2CC[C@]3(O)C(=O)CO)[C@@]2(C)C=CC(=O)C=C12 [Methylprednisolone] (1 nM) | 116
CC[C@H](C)C(=O)O[C@H]1C[C@H](O)C=C2C=C[C@H](C)[C@H](CC[C@@H](O)C[C@@H](O)CC(=O)O)[C@H]21 [Pravastatin] (10 nM) | 85.2
O=C(Cc1ccc(-c2ccc(OCCN3CCOCC3)cc2)cn1)NCc1ccccc1 [KX2-391] (10 nM) | 101

Each compound was assayed on MDA-MB-231 in the same assay as above. Details: incubation time: 72 h.
How it was run: as §1

SMILES | normalised response [%]
Nc1nc(F)nc2c1ncn2[C@@H]1O[C@H](CO)[C@@H](O)[C@@H]1O [Fludarabine] (1 nM) | 99.9
CC[C@@H]1C(=O)N(C)c2cnc(Nc3ccc(C(=O)NC4CCN(C)CC4)cc3OC)nc2N1C1CCCC1 [BI 2536] (0.1 nM) | 103
Nc1ncn([C@H]2C[C@H](O)[C@@H](CO)O2)c(=O)n1 [Decitabine] (1 nM) | 104
CC1=C(/C=C/C(C)=C/C=C/C(C)=C/C(=O)O)C(C)(C)CCC1 [Tretinoin] (1 nM) | 101
COc1cc([C@@H]2c3cc4c(cc3[C@@H](O[C@@H]3O[C@@H]5CO[C@@H](c6cccs6)O[C@H]5[C@H](O)[C@H]3O)[C@H]3COC(=O)[C@H]23)OCO4)cc(OC)c1O [Teniposide] (1 nM) | 94.1
CCN(CC)CCCC(C)Nc1c2ccc(Cl)cc2nc2ccc(OC)cc12 (stereo not drawn) [Mepacrine] (50 nM) | 94
O=C(/C=C/c1cccnc1)NCCCCC1CCN(C(=O)c2ccccc2)CC1 [Daporinad] (1 nM) | 101
Nc1nc2[nH]cc(CCc3ccc(C(=O)N[C@@H](CCC(=O)O)C(=O)O)cc3)c2c(=O)[nH]1 [Pemetrexed] (10 nM) | 96.9
CC[C@H](Nc1ncnc2[nH]cnc12)c1nc2cccc(F)c2c(=O)n1-c1ccccc1 [GS-1101] (10 nM) | 93.2
Cc1cnc(NC(=O)Nc2cc(Br)c(C)cc2OC[C@@H]2CNCCO2)cn1 [Rabusertib] (0.1 nM) | 104
CNC(=O)c1cc(Oc2ccc(NC(=O)Nc3cc(C(C)(C)C)nn3-c3ccc4ncccc4c3)c(F)c2)ccn1 [Rebastinib] (1 nM) | 94.7
CCc1cncnc1N1CCN(Cc2nc3ccc(C(F)(F)F)cc3[nH]2)CC1 (1 nM) | 105
O=C(Cc1ccc(-c2ccc(OCCN3CCOCC3)cc2)cn1)NCc1ccccc1 [KX2-391] (1 nM) | 107
O=C(/C=C/c1cccnc1)NCCCCC1CCN(C(=O)c2ccccc2)CC1 [Daporinad] (0.1 nM) | 101
O=C(O)C(=O)O.[NH-][C@@H]1CCCC[C@H]1[NH-].[Pt+2] [Oxaliplatin] (1 nM) | 94.2
CC(=O)Nc1cccc(-n2c(=O)n(C3CC3)c(=O)c3c(Nc4ccc(I)cc4F)n(C)c(=O)c(C)c32)c1 [Trametinib] (0.025 nM) | 104
O=C(O)C1(C(=O)O)CCC1.[NH2-].[NH2-].[Pt+2] [Carboplatin] (1 nM) | 104
C[C@H]1C[C@@H]2[C@H]([C@@H](O)C[C@@]3(C)[C@H]2CC[C@]3(O)C(=O)CO)[C@@]2(C)C=CC(=O)C=C12 [Methylprednisolone] (1 nM) | 105
CC[C@H](C)C(=O)O[C@H]1C[C@H](O)C=C2C=C[C@H](C)[C@H](CC[C@@H](O)C[C@@H](O)CC(=O)O)[C@H]21 [Pravastatin] (10 nM) | 99.1
O=C(Cc1ccc(-c2ccc(OCCN3CCOCC3)cc2)cn1)NCc1ccccc1 [KX2-391] (10 nM) | 100

Each compound was assayed on MCF-10A in the same assay as above. Details: incubation time: 72 h.
How it was run: as §1

SMILES | normalised response [%]
Nc1nc(F)nc2c1ncn2[C@@H]1O[C@H](CO)[C@@H](O)[C@@H]1O [Fludarabine] (1 nM) | 113
CC[C@@H]1C(=O)N(C)c2cnc(Nc3ccc(C(=O)NC4CCN(C)CC4)cc3OC)nc2N1C1CCCC1 [BI 2536] (0.1 nM) | 106
Nc1ncn([C@H]2C[C@H](O)[C@@H](CO)O2)c(=O)n1 [Decitabine] (1 nM) | 92.4
CC1=C(/C=C/C(C)=C/C=C/C(C)=C/C(=O)O)C(C)(C)CCC1 [Tretinoin] (1 nM) | 105
COc1cc([C@@H]2c3cc4c(cc3[C@@H](O[C@@H]3O[C@@H]5CO[C@@H](c6cccs6)O[C@H]5[C@H](O)[C@H]3O)[C@H]3COC(=O)[C@H]23)OCO4)cc(OC)c1O [Teniposide] (1 nM) | 106
